In article PMC8509773, “3-Pyridinylidene Derivatives of Chemically Modified Lupane and Ursane Triterpenes as Promising Anticancer Agents by Targeting Apoptosis” (International Journal of Molecular Sciences, 2021):

Legend:
Test in all cases: NCI-60 SRB screening (one-dose and five-dose)
Assay type in all cases: cell-based, human
[1] = system: UO-31; details: UO-31, 10 μM, 48 h
Procedure: (§1) The compounds were added at a single concentration and the cell cultures were incubated for 48 h. The end point determinations were made with a protein binding dye, sulforhodamine B (SRB). […] The percentage of growth was evaluated spectrophotometrically versus controls not treated with test agents after 48-h exposure and using SRB protein assay to estimate cell viability or growth. […] Furthermore, mean graph midpoints (MG_MID) were calculated for each of the parameters, giving an average activity parameter over all cell lines for the tested compound. For the MG_MID calculation, insensitive cell lines were included with the highest concentration tested.

[2] = system: DU-145; details: DU-145, 10 μM, 48 h
Procedure: as §1

[3] = system: SF-295; details: SF-295, 10 μM, 48 h
Procedure: as §1

[4] = system: U251; details: U251, 10 μM, 48 h
Procedure: as §1

[5] = system: NCI-H522; details: NCI-H522, 10 μM, 48 h
Procedure: as §1

[6] = system: OVCAR-3; details: OVCAR-3, 10 μM, 48 h
Procedure: as §1

[7] = system: HCT-116; details: HCT-116, 10 μM, 48 h
Procedure: as §1

[8] = system: T-47D; details: T-47D, 10 μM, 48 h
Procedure: as §1

[9] = system: HT29; details: HT29, 10 μM, 48 h
Procedure: as §1

[10] = system: SK-OV-3; details: SK-OV-3, 10 μM, 48 h
Procedure: as §1

[11] = system: SN12C; details: 10 μM, 48 h
Procedure: as §1

[12] = system: MOLT-4; details: MOLT-4, 10 μM, 48 h
Procedure: as §1

[13] = system: 786-0; details: 786-0, 10 μM, 48 h
Procedure: as §1

[14] = system: CCRF-CEM; details: 10 μM, 48 h
Procedure: as §1

[15] = system: HS 578T; details: 10 μM, 48 h
Procedure: as §1

[16] = system: IGROV1; details: IGROV1, 10 μM, 48 h
Procedure: as §1

[17] = system: TK-10; details: TK-10, 10 μM, 48 h
Procedure: as §1

[18] = system: UACC-257; details: UACC-257, 10 μM, 48 h
Procedure: as §1

[19] = system: NCI-H322M; details: 10 μM, 48 h
Procedure: as §1

[20] = system: SK-MEL-2; details: SK-MEL-2, 10 μM, 48 h
Procedure: as §1

[21] = system: MDA-MB-468; details: MDA-MB-468, 10 μM, 48 h
Procedure: as §1

[22] = system: MDA-MB-231/ATCC; details: 10 μM, 48 h
Procedure: as §1

[23] = system: HOP-62; details: HOP-62, 10 μM, 48 h
Procedure: as §1

[24] = system: ACHN; details: 10 μM, 48 h
Procedure: as §1

[25] = system: SF-539; details: SF-539, 10 μM, 48 h
Procedure: as §1

[26] = system: RXF 393; details: RXF 393, 10 μM, 48 h
Procedure: as §1

[27] = system: LOX IMVI; details: 10 μM, 48 h
Procedure: as §1

[28] = system: OVCAR-5; details: OVCAR-5, 10 μM, 48 h
Procedure: as §1

[29] = system: CAKI-1; details: CAKI-1, 10 μM, 48 h
Procedure: as §1

[30] = system: SW-620; details: SW-620, 10 μM, 48 h
Procedure: as §1

[31] = system: HCC-2998; details: HCC-2998, 10 μM, 48 h
Procedure: as §1

[32] = system: SK-MEL-5; details: SK-MEL-5, 10 μM, 48 h
Procedure: as §1

[33] = system: A549/ATCC; details: 10 μM, 48 h
Procedure: as §1

[34] = system: MALME-3M; details: 10 μM, 48 h
Procedure: as §1

[35] = system: HOP-92; details: HOP-92, 10 μM, 48 h
Procedure: as §1

[36] = system: SNB-19; details: SNB-19, 10 μM, 48 h
Procedure: as §1

[37] = system: MDA-MB-435; details: MDA-MB-435, 10 μM, 48 h
Procedure: as §1

[38] = system: OVCAR-8; details: OVCAR-8, 10 μM, 48 h
Procedure: as §1

[39] = system: HCT-15; details: HCT-15, 10 μM, 48 h
Procedure: as §1

[40] = system: SR; details: 10 μM, 48 h
Procedure: as §1

SMILES	Growth Percent [1]	Growth Percent [2]	Growth Percent [3]	Growth Percent [4]	Growth Percent [5]	Growth Percent [6]	Growth Percent [7]	Growth Percent [8]	Growth Percent [9]	Growth Percent [10]	Growth Percent [11]	Growth Percent [13]	Growth Percent [14]	Growth Percent [15]	Growth Percent [16]	Growth Percent [17]	Growth Percent [18]	Growth Percent [19]	Growth Percent [20]	Growth Percent [21]	other results
C[C@H]1[C@@H]2[C@H]3CC[C@@H]4[C@@]5(C)CC[C@H](O)C(C)(C)[C@@H]5CC[C@@]4(C)[C@]3(C)CC[C@]23CO[C@@]1(C)C(C(=O)/C=C/c1cccnc1)C3 (some centres unmarked) [Compound 4]	58.69%	73.94%	79.88%	58.63%	37.96%	46.73%	14.40%	30.20%	99.49%	77.76%	62.68%	63.59%	30.84%	81.98%	80.59%	31.89%	49.29%	88.41%	87.32%	20.53%	Growth Percent [12]: 25.21%; Growth Percent [22]: 82.10%; Growth Percent [23]: 81.73%; Growth Percent [24]: 41.58%; Growth Percent [25]: 77.76%; Growth Percent [26]: 75.20%; Growth Percent [27]: 51.47%; Growth Percent [28]: 120.62%; Growth Percent [29]: 55.59%; Growth Percent [30]: 32.25%; Growth Percent [31]: 69.92%; Growth Percent [32]: 37.02%; Growth Percent [33]: 57.76%; Growth Percent [34]: 54.41%; Growth Percent [35]: 79.10%; Growth Percent [36]: 71.61%; Growth Percent [37]: 34.50%; Growth Percent [38]: 35.05%; Growth Percent [39]: 38.53%
C[C@H]1[C@@H]2[C@H]3CC[C@@H]4[C@@]5(C)CC[C@H](O)C(C)(C)[C@@H]5CC[C@@]4(C)[C@]3(C)CC[C@]23CO[C@@]1(C)[C@@H](C(=O)/C=C/c1ccco1)C3 [Compound 5, 3β-Hydroxy-21-[3-(2E-furyl)-prop-2-en-1-one]-20β,28-epoxy-18α,19βH-ursane]	77.02%	102.22%	109.70%	69.38%	87.83%	102.55%	100.13%	84.80%	98.06%	102.58%	100.53%	103.94%	100.63%	95.83%	107.89%	97.40%	−8.91%	88.29%	9.51%	19.35%	Growth Percent [22]: 82.90%; Growth Percent [23]: 104.25%; Growth Percent [24]: 44.33%; Growth Percent [25]: 99.66%; Growth Percent [26]: 109.55%; Growth Percent [27]: 89.02%; Growth Percent [28]: 102.21%; Growth Percent [29]: 55.81%; Growth Percent [30]: 97.06%; Growth Percent [31]: 104.00%; Growth Percent [32]: 8.55%; Growth Percent [33]: 103.89%; Growth Percent [34]: −11.31%; Growth Percent [35]: 65.36%; Growth Percent [36]: 75.34%; Growth Percent [37]: 17.83%; Growth Percent [38]: 99.33%; Growth Percent [39]: 105.61%
COC(=O)[C@]12CC[C@@H](C(C)=O)[C@@H]1[C@H]1CC[C@@H]3[C@@]4(C)C/C(=C\c5cccnc5)C(=O)C(C)(C)[C@@H]4CC[C@@]3(C)[C@]1(C)CC2 [Compound 8, Methyl 3,20-dioxo-2-(3-pyridinylidene)-29-nor-lup-28-oate]	56.64%	68.80%	75.30%	56.61%	47.50%	49.04%	3.92%	24.42%	16.53%	93.73%	57.75%	84.87%	7.57%	74.77%	85.80%	132.71%	58.14%	93.90%	68.06%	55.75%	Growth Percent [40]: 12.35%; Growth Percent [12]: 5.47%; Growth Percent [22]: 76.56%; Growth Percent [23]: 102.96%; Growth Percent [24]: 32.49%; Growth Percent [25]: 81.03%; Growth Percent [26]: 30.89%; Growth Percent [28]: 114.28%; Growth Percent [29]: 51.03%; Growth Percent [30]: 25.33%; Growth Percent [31]: 75.76%; Growth Percent [32]: 39.76%; Growth Percent [33]: 51.40%; Growth Percent [34]: 29.95%; Growth Percent [35]: 66.73%; Growth Percent [36]: 67.72%; Growth Percent [37]: 72.63%; Growth Percent [38]: 38.71%; Growth Percent [39]: 23.22%
